Laboratory results taken from patent US12310974B1, “Method of treating post-traumatic stress disorder with carpipramine” (priority 2023, dated 2025).

Experiments:
[1] = tested on: rats subjected to psychosocial stress; experiment: Elevated plus maze (EPM) after predator exposure and housing instability; assay type: in vivo; details: daily i.p. 21 days: carpipramine 5, sertraline 5, amitriptyline 2, quetiapine 10 mg/kg, 5 min on EPM
Method: (§1) An experiment was conducted to assess the effects of carpipramine, sertraline, amitriptyline and quetiapine in rates subjected to psychosocial stress (predator exposure and housing instability) against PTSD-like behaviours, based on a protocol adapted from Zoladz et al (2012).
(§2) Adult male Sprague-Dawley rats were used in all experiments. Fifty (50) rats were pair-housed on a 12-h light/dark schedule in cages with free access to food and water.
(§3) Following a 1-week acclimation phase, they were given two 1-h cat exposures, separated by 10 days, in conjunction with daily social stress in the form of randomized housing. During each of the two cat exposures, rats were placed in a perforated wedge-shaped Plexiglas enclosure. The rats, still immobilized within the Plexiglas enclosure, were taken to the cat housing room where they were placed in a metal cage with an adult female cat for 1 hour. The Plexiglas enclosure prevented any physical contact between the cat and rats, but enabled the rats to be exposed to all non-tactile sensory stimuli associated with the cat. The two cat exposures were separated by 10 days, with the first exposure taking place during the light cycle, and the second exposure taking place during the dark cycle. Beginning on the day of the first cat exposure, rats were exposed to unstable housing conditions for the next 31 days. They were housed two rats per cage, with their cohort pair combination changed on a daily basis during the entire 31-day stress period.
(§4) The rats were randomly assigned to 5 groups of 10, treated with carpipramine, sertraline, amitriptyline, quetiapine and saline. The treatments were administered as daily intraperitoneal injections over 21 days, starting from the day following the second cat exposure. Daily doses were as following: • Carpipramine: 5 mg/kg • Sertraline: 5 mg/kg • Amitriptyline: 2 mg/kg • Quetiapine: 10 mg/kg
Twenty-four hours after fear conditioning memory testing, the rats were placed on an elevated plus maze (EPM) for 5 minutes. The EPM is a routine test of anxiety in rodents and consists of two open arms and two closed arms of same size (11 cm by 50 cm) that intersect each other to form the shape of a plus sign. At the beginning of each trial, the rats were placed in the intersection area of the EPM, facing one of the open arms. The primary dependent measures of interest were the amount of time rats spent in the open arms and their overall ambulations.

[2] = tested on: rats subjected to psychosocial stress; experiment: Context memory test after predator exposure and housing instability; assay type: in vivo; details: daily i.p. 21 days: carpipramine 5, sertraline 5, amitriptyline 2, quetiapine 10 mg/kg, 5 min in chamber
Method: as §1, §2, §3, §4
(§5) Since a major component of PTSD is the persistent memory of a traumatic experience, a method with which to measure a rat's memory for the cat exposure experiences was used. Thus, rats were given a predator-based form of fear conditioning. The rats were placed in a chamber for 3 minutes immediately prior to each of the two cat exposures. The chamber consisted of two aluminium sides, an aluminium ceiling and clear Plexiglas on the front and back walls and speaker on one wall. A 74 dB, 2500 Hz tone was presented during the last 30 seconds of each chamber exposure. Three weeks following the second cat exposure, the rats were tested for their conditioned fear memory by assessing their freezing response (degree of immobility) when they were returned to the chamber and exposed to the tone. […] For the cue memory test, the percentage of immobile time was measured during the last 3 minutes (i.e. during the tone).

[3] = tested on: rats subjected to psychosocial stress; experiment: Cue memory test after predator exposure and housing instability; assay type: in vivo; details: daily i.p. 21 days: carpipramine 5, sertraline 5, amitriptyline 2, quetiapine 10 mg/kg, last 3 minutes (tone)
Method: as §1, §2, §3, §4, §5

alpha-1 adrenoreceptors = details: cited from earlier work
serotonin uptake = details: studies on metabolic fate and serotonin levels in the brain; cited from earlier work
socially isolated mice [4] = experiment: Contextual fear conditioning and extinction (freezing) in socially isolated mice; assay type: in vivo; details: for Change in duration of freezing, mean: carpipramine 10 mg/kg s.c., change from day 1
Text: Socially isolated mice express a decrease in corticolimbic allopregnanolone levels that is associated with an enhancement of contextual fear responses and impaired fear extinction. Social isolation can be seen as a prolonged stress that is often associated with a precipitating traumatic event, which leads to maladaptive post-stress adaptations and emergence of PTSD in patients. Thus, social isolation is considered to offer a suitable model to study vulnerability to PTSD.
Ten (10) male Swiss-Webster mice were socially isolated for a period of 4 weeks, in individual cages, according to a protocol proposed by Pinna et al.
Day 0—Training Test. During the training, mice were placed into the training chamber and allowed to explore it for 2 min. After this time, they received a conditioned stimulus (acoustic tone, 30 seconds, 85 dB) co-terminated with an unconditioned stimulus (electric foot shock, 2 s, 0.5 mA). This was repeated three times every 2 min. After the last stimuli, mice were allowed to explore the context for an additional minute before removal from the training chamber (total of 8 min).
Day 1—Contextual Test. Twenty-four hours after training, the mice were placed in the contextual cage, and freezing behavior was measured for 5 min without tone or foot shock presentation. Freezing was defined by the absence of any movement except for those related to respiration while the animal was in a stereotypical crouching posture. Freezing time in a index of fear response.
Days 2-5—Extinction Test. For contextual extinction experiments, mice were placed in the contextual cage for periods of 5 min over 4 consecutive days starting 24 h after the contextual test, and freezing behavior was measured.
After the contextual test, 5 mice received a dose of 10 mg/kg of carpipramine subcutaneously. Injections were repeated on days 2 to 4.

PTSD patients = experiment: Clinical case reports of patients with PTSD; assay type: in vivo, human
Text: A person was referred to a psychiatrist by […] general practitioner as they suffered from anxiety, sleep problems and nightmares. […] They were on leave from their position as a teacher. The subject was diagnosed with PTSD and a cognitive behavioural therapy was initiated.
A patient was followed by a psychiatrist due to depression symptoms, including sadness, feeling of hopelessness, apathy and anxiety. […] Fluoxetine was stopped after 6 months. About one year later, the depression symptoms recurred, alongside with auditory hallucinations. The patient was then. […] Three months later, fluoxetine was reintroduced alongside with risperidone. The patient's mood improved, but they still suffered from anxiety and auditory hallucinations. After 6 weeks with the combination of risperidone and fluoxetine, risperidone was replaced by carpipramine (150 mg/day).
A veteran presented to a psychiatrist with major depressive disorder (sadness, irritability, poor concentration, suicidal thoughts). […] New symptoms emerged, including nightmares and anxiety. […] Three months later, the patient relapsed, and was experiencing anxiety symptoms, nightmares and mildly depressed mood. The relapse was treated with carpipramine (initiated at 200 mg/day), which led to remission after 4 weeks of treatment. The patient's condition was stable for about 3 years. The symptoms (anxiety, nightmares, moderately depressed mood) reappeared after that time, together with hallucinations and flashbacks of combat. The diagnostic of PTSD was then established. Carpipramine (200 mg/day) was prescribed again, following the previous experience. The patient entered remission after 3 weeks of treatment.

socially isolated mice [5] = experiment: Forced swim test after social isolation (depressive-like behaviour); assay type: in vivo; details: forced swim day 36 vs pre-test day 21, minutes 3 to 6; daily s.c. for 2 weeks: carpipramine 5 mg/kg, paroxetine 1 mg/kg, olanzapine 0.3 mg/kg
Method: The mice were socially isolated for a period of 3 weeks in individual cages, with a 12-hour light/dark cycle. They had access to food and water at libitum. On day 21, a pre-test was performed. Cylindrical tanks were filled with water (approximately 25° C.) to a depth that prevents mice from touching the bottom. Each mouse was placed in a water-filled cylinder for 6 minutes. If the mouse was swimming or struggling after 6 minutes, it was gently submerged, so that it would struggle under the surface for up to 20 seconds. After this time elapsed, the mouse was removed from the container and placed in a transient drying cage with a heat lamp above it and a heat pad under it. The mice were closely and continuously monitored while recovering in this cage. […] The test was performed on day 36. Mice were placed again in water-filled cylinders for 6 minutes, and then moved to a drying cage. The behaviour of mice was coded over the minutes 3 to 6 of each test, in 3 categories: immobile, struggling and swimming. The time associated with each type of behaviour was recorded. A reduction in immobility time is considered predictive of antidepressant properties.

DA receptors = details: rat striatum in vitro; order of potency Y-516 > clocapramine > carpipramine; cited from earlier work
[6] = Example 6: veteran, sertraline first, switched to venlafaxine, olanzapine subsequently added
[7] = Example 5: patient, fluoxetine as initial treatment, risperidone with psychological therapy

For CN(C)CCC=C1c2ccccc2CCc2ccccc21 [Amitriptyline], the “EPM-Open arm exploration % time in open arm, mean” value (“EPM-Open arm exploration % time” for short) [1] was 20.6%, the “Context memory % immobility time, mean” value [2] was 64.5% and the “Cue memory (during tone) % immobility time, mean” value [3] was 42.7%.

In the case of CN(C)C(=O)N[C@H]1CC[C@H](CCN2CCN(c3cccc(Cl)c3Cl)CC2)CC1 [Cariprazine], the “affinity for alpha-1 adrenoreceptors” value (alpha-1 adrenoreceptors) is given as “low affinity”.

In the case of NC(=O)C1(N2CCCCC2)CCN(CCCN2c3ccccc3CCc3ccccc32)CC1 [Carpipramine], the “effect on serotonin uptake” value (serotonin uptake) is listed as “did not modify serotonin uptake”, the “mean duration of freezing” value (socially isolated mice [4]; day 1 contextual test, treated group before first injection (carpipramine 10 mg/kg s.c. given after the test)) is listed as 117 s and the “Change in duration of freezing, mean” value (socially isolated mice [4]; day 2) is listed as -76 s. The “Change in duration of freezing, mean” value (socially isolated mice [4]; day 3) was -93 s, the “Change in duration of freezing, mean” value (socially isolated mice [4]; day 4) was -98 s and the “Change in duration of freezing, mean” value (socially isolated mice [4]; day 5) was -99 s. The “duration of freezing decreased to” value (socially isolated mice [4]; treated group after extinction tests, carpipramine 10 mg/kg s.c. day 1 and days 2 to 4, p<0.01 vs control) was 18 s, the “clinical outcome of PTSD symptoms” value (PTSD patients; Example 4: person, oral carpipramine 100 mg/daily with cognitive behavioural therapy) was “All PTSD symptoms improved markedly” and the clinical outcome (PTSD patients; Example 5: patient, carpipramine 150 mg/day replacing risperidone, alongside fluoxetine) was “entered in remission two weeks later”. The time to remission (PTSD patients; Example 6: first relapse, carpipramine initiated at 200 mg/day) was 4 weeks, the time to remission (PTSD patients; Example 6: recurrence about 3 years later, PTSD diagnosed, carpipramine 200 mg/day) was 3 weeks and the “Mean change in immobility time compared to pre-test” value (“Mean change in immobility time” for short) (socially isolated mice [5]) was -104.3 s. The “EPM-Open arm exploration % time” value [1] was 42.1%, the “affinity for DA receptors” value (DA receptors) was “high affinity” and the “Context memory % immobility time, mean” value [2] was 22.3%. For the same compound, the “Cue memory (during tone) % immobility time, mean” value [3] was 14.6%.

In the case of Cc1cc2c(s1)Nc1ccccc1N=C2N1CCN(C)CC1 [Olanzapine], the “Mean change in immobility time” value (socially isolated mice [5]) is reported as “+19.5 seconds”.

For Fc1ccc([C@@H]2CCNC[C@H]2COc2ccc3c(c2)OCO3)cc1 [Paroxetine], the “Mean change in immobility time” value (socially isolated mice [5]) was -82.2 s.

In the case of OCCOCCN1CCN(C2=Nc3ccccc3Sc3ccccc32)CC1 [Quetiapine], the “EPM-Open arm exploration % time” value [1] is reported as 28.7%, the “Context memory % immobility time, mean” value [2] is reported as 53.4% and the “Cue memory (during tone) % immobility time, mean” value [3] is reported as 39.3%.

With CN[C@H]1CC[C@@H](c2ccc(Cl)c(Cl)c2)c2ccccc21 [Sertraline] the “clinical outcome of earlier treatments” value (PTSD patients; [6]) was “no improvement”, the “EPM-Open arm exploration % time” value [1] was 32.5% and the “Context memory % immobility time, mean” value [2] was 37.1%. The “Cue memory (during tone) % immobility time, mean” value [3] was 25.7%.

In the case of NC(=O)C1(N2CCCCC2)CCN(CCCN2c3ccccc3CCc3ccc(Cl)cc32)CC1 [clocapramine], the “affinity for DA receptors” value (DA receptors) is listed as “high affinity”.

For CNCCC(Oc1ccc(C(F)(F)F)cc1)c1ccccc1 (stereo not drawn) [fluoxetine], the “clinical outcome of earlier treatments” value (PTSD patients; [7]) was “improvement in most symptoms, but anxiety persisted”.

With Cc1nc2n(c(=O)c1CCN1CCC(c3noc4cc(F)ccc34)CC1)CCCC2 [risperidone] the “clinical outcome of earlier treatments” value (PTSD patients; [7]) was “modest improvement”.

For COc1ccc(C(CN(C)C)C2(O)CCCCC2)cc1 (stereo not drawn) [venlafaxine], the “clinical outcome of earlier treatments” value (PTSD patients; [6]) was “some improvement, but severe symptoms persisted”.
